Experimental data taken from PubChem BioAssay AID1645863 (Buhrlage Lab, Dana-Farber Cancer Institute and Novartis …, 2021).
Activity calls are given as the source filed them. No rule for the calls is given here.

target: Ubiquitin carboxyl-terminal hydrolase 10 (Homo sapiens) (UniProt Q14694); assay: primary hit verification, biochemical, ubiquitin-specific protease 10 deubiquitylase inhibitors, concentration-effect titration (AID 1645863); conditions: USP10 deubiquitinase enzymatic assay;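 also: potency values describe inhibition of USP10 cleavage of a fluorogenic ubiquitin substrate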
Sequence (Q14694 whole entry, looked up): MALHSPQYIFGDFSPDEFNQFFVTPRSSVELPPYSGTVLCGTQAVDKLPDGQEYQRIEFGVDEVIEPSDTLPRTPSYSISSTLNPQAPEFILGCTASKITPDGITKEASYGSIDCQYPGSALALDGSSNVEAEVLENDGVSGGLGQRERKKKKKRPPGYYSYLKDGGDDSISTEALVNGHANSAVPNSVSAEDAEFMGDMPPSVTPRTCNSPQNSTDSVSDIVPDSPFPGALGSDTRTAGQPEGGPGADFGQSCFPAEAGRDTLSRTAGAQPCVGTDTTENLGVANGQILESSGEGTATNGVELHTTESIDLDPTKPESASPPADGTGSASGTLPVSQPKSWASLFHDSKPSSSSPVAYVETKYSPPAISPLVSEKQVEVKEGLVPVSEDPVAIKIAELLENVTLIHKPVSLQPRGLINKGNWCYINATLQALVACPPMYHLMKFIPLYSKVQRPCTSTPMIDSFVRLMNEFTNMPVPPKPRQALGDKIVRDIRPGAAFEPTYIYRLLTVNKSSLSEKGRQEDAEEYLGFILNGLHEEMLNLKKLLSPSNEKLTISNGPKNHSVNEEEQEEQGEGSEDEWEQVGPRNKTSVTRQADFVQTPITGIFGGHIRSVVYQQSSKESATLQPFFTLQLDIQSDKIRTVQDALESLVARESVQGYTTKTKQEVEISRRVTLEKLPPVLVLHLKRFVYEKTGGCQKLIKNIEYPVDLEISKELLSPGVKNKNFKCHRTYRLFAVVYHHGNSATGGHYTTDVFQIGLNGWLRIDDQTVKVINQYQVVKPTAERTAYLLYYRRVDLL

IC50 | Structure (SMILES)
> 40 µM (inactive) | O=C(c1ccncc1)N1CCN(CC2CC=CCC2)CC1 (centres undefined)
> 40 µM (inactive) | O=C(Cn1c(-c2nc(-c3cccc(F)c3)no2)cccc1=O)NCc1ccco1
21.9 µM | Cc1ccc(NC(=O)Nc2ccc(C)n(CC(=O)Nc3ccc(C)cc3C)c2=O)cc1
> 40 µM (inactive) | COc1ccc(-n2ccn3c(CCC(=O)Nc4cccc(C)c4)nnc3c2=O)cc1
23.3 µM | COc1cc(NC(=O)Cn2c(=O)n(-c3ccc(CC(=O)NCc4ccco4)cc3)c(=O)c3ccccc32)cc(OC)c1
9.33 µM | COc1ccc(Cl)cc1NC(=O)c1cc(-c2ccccn2)n[nH]1
> 40 µM (inactive) | COc1cc(CC(=O)Nc2ccccc2N2CCOCC2)cc(OC)c1OC
9.78 µM | COc1ccc(C(=O)COC(=O)c2ccccc2NS(=O)(=O)c2ccc(O)c([N+](=O)[O-])c2)cc1
26.4 µM | NS(=O)(=O)c1ccc(CNC(=O)c2ccc(Cl)c(S(=O)(=O)Nc3cc(Cl)ccc3Cl)c2)cc1
31.5 µM | COc1cc2c(c(OCC(=O)Nc3ccc4c(c3)OCCO4)c1)C(=O)O[C@@H](C)CCCC(=O)CCCCC2
> 40 µM (inactive) | CCCc1ccc(C(=O)[C@@H]2[C@@H](C(=O)c3cccs3)N3c4ccc(C)cc4C(C)=C[C@@H]3[C@@]23C(=O)Nc2ccccc23)cc1
> 40 µM (inactive) | CCOc1ccc2[nH]c(=O)c(-c3nc4ccc(C)cn4c3NCc3ccccc3)cc2c1
18.2 µM | O=C(CCCc1nnc2c(=O)n(-c3cccc(F)c3)ccn12)NCc1ccc(Cl)cc1
> 40 µM (inactive) | O=C(CCc1ccc(F)cc1)N1CCOC(CCc2cc(=O)[nH]cn2)C1 (centres undefined)
> 40 µM (inactive) | O=C(Cn1c(=O)[nH]c2ccccc2c1=O)NCc1ccccc1Cl
> 40 µM (inactive) | Cn1cc(-c2nc(C(=O)Nc3ccc(C#N)cc3)cs2)c2cccnc21
> 40 µM (inactive) | O=C(c1cnccn1)N1CC[C@@H]2CNS(=O)(=O)[C@@H]2CC1
1.75 µM | O=c1cc(-c2ccc(O)c(O)c2)oc2cc(O[C@@H]3O[C@H](CO)[C@@H](O)[C@H](O)[C@H]3O)cc(O)c12
> 40 µM (inactive) | O=C(CSc1nc2ccccc2[nH]1)Nc1cccc2c1OCCO2

IC50 | Structure (SMILES)
14.6 µM | CC(=O)Nc1ccc(NC(=O)c2ccc3c(c2)CC(c2ccccc2)OC3=O)cc1 (centres undefined)
19.9 µM | O=C(Nc1cccc(Br)c1)c1cc(-c2cccnc2)n[nH]1
> 40 µM (inactive) | CCOc1ccc(CC(=O)Nc2ccc(-c3cn4cccnc4n3)cc2)cc1
> 40 µM (inactive) | N#C/C(=C\c1ccccc1F)c1nnc(N)s1
> 40 µM (inactive) | c1ccc2sc(-c3csc(-c4ccc5c(c4)OCCO5)n3)nc2c1
8.94 µM | COc1ccc(C2/C(=C(\O)c3ccccc3)C(=O)C(=O)N2c2nc3ccc(F)cc3s2)cc1 (centres undefined)
> 40 µM (inactive) | O=C(Cc1ccc(-n2c(=O)c3ccccc3n(Cc3cccc([N+](=O)[O-])c3)c2=O)cc1)NC1CCCC1
> 40 µM (inactive) | COc1ccc(NS(=O)(=O)c2cc(NC(=O)CC(=O)c3ccc([N+](=O)[O-])cc3)ccc2C)cc1
> 40 µM (inactive) | Cc1cccc(OCC2=NN3C(=N)/C(=C\c4cc(C)n(-c5cc(C)cc(C)c5)c4C)C(=O)N=C3S2)c1
15.4 µM | Cc1ccc(C)c(NC(=O)Cn2cc(C(=O)C3CC3)c3ccccc32)c1
> 40 µM (inactive) | Cc1ccccc1Cn1c(=O)n(CC2CCC(C(=O)NC3CCCC3)CC2)c(=O)c2ccccc21 (centres undefined)
> 40 µM (inactive) | O=C(/C=C/c1ccc(F)cc1)N1CCc2ccccc2C1
15.9 µM | O=C(CSc1ccc(-c2cccc([N+](=O)[O-])c2)nn1)Nc1cccc(F)c1
> 40 µM (inactive) | CCOc1ccc2c(c1)c(=O)c(C(=O)c1ccccc1)cn2CC(=O)Nc1ccc(OC)cc1
> 40 µM (inactive) | Cn1cc2cccc(NC(=O)c3ccc(F)cc3)c2n1
> 40 µM (inactive) | CCc1nnc(-c2ccc3ccn(CC(=O)N4CCN(c5ccccn5)CC4)c3c2)o1
26.6 µM | Nc1ccc2oc(-c3cccc(-c4nc5cc(N)ccc5o4)n3)nc2c1
> 40 µM (inactive) | Cc1ccccc1-n1ccc2nc(N3CCCC3)ncc2c1=O
> 40 µM (inactive) | O=C(NCCN1CCOCC1)c1cn2cc(Cl)ccc2n1

IC50 | Structure (SMILES)
16.2 µM | COc1cn(-c2ccc(F)cc2)nc1C(=O)Nc1ccc(Cl)cc1Cl
> 40 µM (inactive) | Nc1c(-c2ccc(Cl)cc2)cnc2cc(-c3ccc(Cl)c(Cl)c3)nn12
1.8 µM | O=c1cc(-c2ccc(O)c(O)c2)oc2cc(O)cc(O)c12
> 40 µM (inactive) | CCOc1ccc(NS(=O)(=O)c2ccc(NC(=O)Nc3ccccc3)cc2)cc1
> 40 µM (inactive) | CC(c1ccccc1)N1CC(O)=C(c2nc3ccccc3s2)C1=N (centres undefined)
> 40 µM (inactive) | COc1ccccc1N(CC(=O)N1c2ccccc2CC1C)S(=O)(=O)c1ccc(F)cc1 (centres undefined)
> 40 µM (inactive) | Cc1cc(=O)n(C)c2c(O)c3c(cc12)c(C)cc(=O)n3C
> 40 µM (inactive) | O=C(Cn1c(=O)n(CCC(=O)NC2CCCC2)c(=O)c2ccccc21)NCc1ccccc1Cl
3.21 µM | Cn1c(=O)c2nc(-c3ccc(Cl)cc3)nnc2n(C)c1=O
> 40 µM (inactive) | COc1ccc(-c2nc(-c3cc4cc(OC)ccc4[nH]c3=O)no2)cc1
8.88 µM | O=C(CCCn1c(=O)c2ccccc2n(CC(=O)NCc2ccccc2Cl)c1=O)NCc1ccc2c(c1)OCO2
31.5 µM | Cc1ccc(NC(=O)Cc2nnc3c(-c4nc(C5CC5)no4)cccn23)cc1F
> 40 µM (inactive) | COC(=O)c1ccccc1NC(=O)CSc1nnc(CNc2ccc(F)cc2)n1CC1CCCO1 (centres undefined)
10.9 µM | O=C(Cn1nc2c3c4c(sc3ncn2c1=O)CCCCC4)Nc1ccc(Cl)cc1F
> 40 µM (inactive) | Cc1[nH]nc(NC(=O)C2COc3ccccc3O2)c1-c1ccccc1 (centres undefined)
> 40 µM (inactive) | CCOc1ccc(-c2noc(-c3nn(-c4cccc(OC)c4)ccc3=O)n2)cc1
> 40 µM (inactive) | CSc1cccc(NC(=O)C2C3C=CC4(O3)C2C(=O)N(CCc2ccccc2)C4C(=O)NC2CCCCC2)c1 (centres undefined)
> 40 µM (inactive) | Cc1ccc(C(=O)O)cc1NC(=O)C(Sc1cccc(NC(=O)c2ccccc2C)c1)c1ccccc1 (centres undefined)
15 µM | CCn1cc2c(n1)c(=O)n(Cc1ccccc1)c(=O)n2CC(=O)Nc1ccc(C(C)C)cc1

Structure (SMILES) | IC50
O=C(CN1CC=C(c2ccccc2)CC1)Nc1ccc(S(=O)(=O)N2CCOCC2)cc1 | > 40 µM (inactive)
CC(C)=CCC[C@H](C(=O)O)[C@@H]1CC[C@]2(C)C3=C(CC[C@@]12C)[C@@]1(C)CCC(=O)C(C)(C)C1CC3 (some centres undefined) | 23.8 µM
